Numbers after ± are expanded uncertainties.
Columns and labels:
[1] = refractive index (Na D-line) (dimensionless); settings: 101.33 kPa, Liquid
[2] = 101.33 kPa, Liquid
[3] = xn = mol fraction of the nth substance listed; settings: 101 kPa, Liquid, x2 = 0
[4] = refractive index (Na D-line) (dimensionless); xn = mol fraction of the nth substance listed; settings: 101 kPa, Liquid, x2 = 0

CCCCCCn1cc[n+](C)c1.F[P-](F)(F)(F)(F)F [1-hexyl-3-methylimidazolium hexafluorophosphate]
Settings	mass density, Vibrating tube method [kg/m3]	refractive index, Standard Abbe refractometry	speed of sound, Sing-around technique in a fixed-path interferometer [m/s]
[1], 293.15 K	–	1.42064 ± 0.00072	–
[1], 298.15 K	–	1.41935 ± 0.00072	–
[1], 303.15 K	–	1.41806 ± 0.00072	–
[1], 308.15 K	–	1.41676 ± 0.00072	–
[1], 313.15 K	–	1.41547 ± 0.00072	–
[1], 318.15 K	–	1.41417 ± 0.00072	–
[1], 323.15 K	–	1.41288 ± 0.00072	–
[2], 293.15 K	1291.38 ± 4.2	–	1436.9 ± 3.1
[2], 298.15 K	1287.34 ± 4.2	–	1423.5 ± 3.1
[2], 303.15 K	1283.29 ± 4.1	–	1410.6 ± 3.1
[2], 308.15 K	1279.4 ± 4.1	–	1398.2 ± 3.1
[2], 313.15 K	1275.48 ± 4.1	–	1386 ± 3.1
[2], 318.15 K	1271.56 ± 4	–	1374.2 ± 3.1
[2], 323.15 K	1267.63 ± 4	–	1362.5 ± 3.1

CCCCOC(C)=O [butyl ethanoate] + CCCCCCn1cc[n+](C)c1.F[P-](F)(F)(F)(F)F
Settings	mass density, Vibrating tube method [kg/m3]	refractive index, Standard Abbe refractometry	speed of sound, Sing-around technique in a fixed-path interferometer [m/s]
[3], 293.15 K	881.134 ± 0.2	–	1211.3 ± 1.4
[3], 298.15 K	876.004 ± 0.2	–	1190.5 ± 1.4
[3], 303.15 K	870.855 ± 0.2	–	1169.8 ± 1.3
[3], 308.15 K	865.685 ± 0.2	–	1149.2 ± 1.3
[3], 313.15 K	860.492 ± 0.2	–	1128.8 ± 1.3
[3], 318.15 K	855.275 ± 0.2	–	1108.5 ± 1.3
[3], 323.15 K	850.032 ± 0.21	–	1088.3 ± 1.3
[4], 293.15 K	–	1.39428 ± 0.00042	–
[4], 298.15 K	–	1.39188 ± 0.00042	–
[4], 303.15 K	–	1.38948 ± 0.00042	–
[4], 308.15 K	–	1.3871 ± 0.00042	–
[4], 313.15 K	–	1.38469 ± 0.00042	–
[4], 318.15 K	–	1.38227 ± 0.00042	–
[4], 323.15 K	–	1.37984 ± 0.00042	–

CCCCOC(C)=O [butyl ethanoate]
Settings	mass density, Vibrating tube method [kg/m3]	refractive index, Standard Abbe refractometry	speed of sound, Sing-around technique in a fixed-path interferometer [m/s]
[1], 293.15 K	–	1.39428 ± 0.00042	–
[1], 298.15 K	–	1.39188 ± 0.00042	–
[1], 303.15 K	–	1.38948 ± 0.00042	–
[1], 308.15 K	–	1.3871 ± 0.00042	–
[1], 313.15 K	–	1.38469 ± 0.00042	–
[1], 318.15 K	–	1.38227 ± 0.00042	–
[1], 323.15 K	–	1.37984 ± 0.00042	–
[2], 293.15 K	881.134 ± 0.2	–	1211.3 ± 1.4
[2], 298.15 K	876.004 ± 0.2	–	1190.5 ± 1.4
[2], 303.15 K	870.855 ± 0.2	–	1169.8 ± 1.3
[2], 308.15 K	865.685 ± 0.2	–	1149.2 ± 1.3
[2], 313.15 K	860.492 ± 0.2	–	1128.8 ± 1.3
[2], 318.15 K	855.275 ± 0.21	–	1108.5 ± 1.3
[2], 323.15 K	850.032 ± 0.21	–	1088.3 ± 1.3

CCCCOC(C)=O [butyl ethanoate] + CCCCCCCC[n+]1ccn(C)c1.F[P-](F)(F)(F)(F)F
Settings	mass density, [3] [kg/m3]	refractive index, [4]	speed of sound, [3] [m/s]
293.15 K	881.134 ± 0.5	1.39428 ± 0.0016	1211.3 ± 2.7
298.15 K	876.004 ± 0.51	1.39188 ± 0.0016	1190.5 ± 2.7
303.15 K	870.855 ± 0.52	1.38948 ± 0.0016	1169.8 ± 2.7
308.15 K	865.685 ± 0.53	1.3871 ± 0.0016	1149.2 ± 2.6
313.15 K	860.492 ± 0.53	1.38469 ± 0.0016	1128.8 ± 2.6
318.15 K	855.275 ± 0.54	1.38227 ± 0.0016	1108.5 ± 2.6
323.15 K	850.032 ± 0.55	1.37984 ± 0.0016	1088.3 ± 2.6

CCOC(C)=O [ethyl acetate] + CCCCCCCC[n+]1ccn(C)c1.F[P-](F)(F)(F)(F)F
Settings	mass density, [3] [kg/m3]	refractive index, [4]	speed of sound, [3] [m/s]
293.15 K	900.573 ± 0.39	1.37237 ± 0.0016	1162.4 ± 2.5
298.15 K	894.473 ± 0.41	1.36982 ± 0.0016	1139.8 ± 2.4
303.15 K	888.347 ± 0.42	1.36727 ± 0.0016	1117.2 ± 2.4
308.15 K	882.172 ± 0.43	1.36473 ± 0.0016	1094.7 ± 2.4
313.15 K	875.951 ± 0.44	1.36219 ± 0.0016	1072.4 ± 2.4
318.15 K	869.681 ± 0.45	1.35968 ± 0.0016	1050.1 ± 2.3
323.15 K	863.358 ± 0.47	1.35732 ± 0.0016	1028 ± 2.3

CCCCCCCC[n+]1ccn(C)c1.F[P-](F)(F)(F)(F)F [1-octyl-3-methylimidazolium hexafluorophosphate]
Settings	mass density, [2] [kg/m3]	refractive index, [1]	speed of sound, [2] [m/s]
293.15 K	1222.81 ± 4.2	1.42649 ± 0.0017	1388.2 ± 4.7
298.15 K	1218.9 ± 4.2	1.42512 ± 0.0017	1373.4 ± 4.7
303.15 K	1214.96 ± 4.1	1.42376 ± 0.0017	1359.3 ± 4.6
308.15 K	1211.13 ± 4.1	1.4224 ± 0.0017	1345.8 ± 4.6
313.15 K	1207.33 ± 4.1	1.42103 ± 0.0017	1332.7 ± 4.6
318.15 K	1203.5 ± 4	1.41967 ± 0.0017	1320.1 ± 4.6
323.15 K	1199.67 ± 4	1.41831 ± 0.0017	1307.7 ± 4.5

CCOC(C)=O [ethyl acetate]
Settings	mass density, Vibrating tube method [kg/m3]	refractive index, Standard Abbe refractometry	speed of sound, Sing-around technique in a fixed-path interferometer [m/s]
[1], 293.15 K	–	1.37237 ± 0.00041	–
[1], 298.15 K	–	1.36982 ± 0.00041	–
[1], 303.15 K	–	1.36727 ± 0.00041	–
[1], 308.15 K	–	1.36473 ± 0.00041	–
[1], 313.15 K	–	1.36219 ± 0.00041	–
[1], 318.15 K	–	1.35968 ± 0.00041	–
[1], 323.15 K	–	1.35732 ± 0.00041	–
[2], 293.15 K	900.573 ± 0.13	–	1162.4 ± 1.2
[2], 298.15 K	894.473 ± 0.13	–	1139.8 ± 1.2
[2], 303.15 K	888.347 ± 0.13	–	1117.2 ± 1.2
[2], 308.15 K	882.172 ± 0.13	–	1094.7 ± 1.2
[2], 313.15 K	875.951 ± 0.14	–	1072.4 ± 1.2
[2], 318.15 K	869.681 ± 0.14	–	1050.1 ± 1.2
[2], 323.15 K	863.358 ± 0.14	–	1028 ± 1.2

CCOC(C)=O [ethyl acetate] + CCCCCCn1cc[n+](C)c1.F[P-](F)(F)(F)(F)F
[3]
Settings	mass density, Vibrating tube method [kg/m3]	speed of sound, Sing-around technique in a fixed-path interferometer [m/s]
293.15 K	900.573 ± 0.12	1162.4 ± 1.2
298.15 K	894.473 ± 0.13	1139.8 ± 1.2
303.15 K	888.347 ± 0.13	1117.2 ± 1.2
308.15 K	882.172 ± 0.13	1094.7 ± 1.2
313.15 K	875.951 ± 0.14	1072.4 ± 1.2
318.15 K	869.681 ± 0.14	1050.1 ± 1.2
323.15 K	863.358 ± 0.14	1028 ± 1.2

[4]
Settings	refractive index
293.15 K	1.37237 ± 0.0008
298.15 K	1.36982 ± 0.0008
303.15 K	1.36727 ± 0.0008
308.15 K	1.36473 ± 0.0008
313.15 K	1.36219 ± 0.0008
318.15 K	1.35968 ± 0.0008
323.15 K	1.35732 ± 0.0008
